# Measured values: paper PMC5406018, “TCR stimulation strength is inversely associated with establishment of functional brain-resident memory CD8 T cells during persistent viral infection” (PLoS Pathogens, 2017)
# No end group written: not given here.
# Target: T1, MHC-I D^b (Mus musculus, UniProt P01899)
# T1 construct: endogenous in cells; host or cells: RMA/S cells
# T1 sequence (P01899 25-362): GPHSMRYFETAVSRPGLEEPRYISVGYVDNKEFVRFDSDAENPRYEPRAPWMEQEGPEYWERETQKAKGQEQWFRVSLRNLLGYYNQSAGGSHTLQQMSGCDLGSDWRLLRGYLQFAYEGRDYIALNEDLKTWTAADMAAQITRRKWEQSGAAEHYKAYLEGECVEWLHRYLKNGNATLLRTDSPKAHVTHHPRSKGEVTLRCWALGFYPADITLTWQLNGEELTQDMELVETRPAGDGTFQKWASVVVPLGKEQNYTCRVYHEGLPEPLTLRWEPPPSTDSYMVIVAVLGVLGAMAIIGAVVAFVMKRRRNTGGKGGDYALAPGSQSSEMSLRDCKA
# T1 sequence (P01887 21-119 partner): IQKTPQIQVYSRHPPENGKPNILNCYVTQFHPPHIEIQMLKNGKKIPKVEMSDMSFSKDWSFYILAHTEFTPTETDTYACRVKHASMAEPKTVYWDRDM
# Experiment: RMA/S MHC-I stabilization assay
# Details: RMA/S cells cultured overnight at 26°C, peptide 1 h at RT then 2 h at 37°C; anti-D^b gMFI, percent of maximum; unit inferred; read-out: MHC-I D^b EC50 (MHC-I binding and stabilization)
# Description: Fig 1 Characterizing the T cell response to analogues of a subdominant CD8 T cell epitope. (A) RMA/S cells were cultured overnight at 26°C. Cells were incubated with the indicated dose of peptide for 1 h at RT followed by incubation at 37C for 2 h. […] (B) RMA/S cells were cultured overnight at […] in 100 μM of peptide. Cells were then resuspended in fresh media, incubated at 37C, and sampled hourly for 4 h. […] Nuclear Nur77 (C) and intracellular IFNγ expression (D) shown. […] All data plotted as percent of maximal expression ± SD. […]
# For MHC-I stabilization assays, RMA/S cells were cultured overnight at 26°C, resuspended in RPMI containing 10% FBS (10% RPMI) and peptides of different concentrations, then incubated for 1 h at room temperature followed by 2 h at 37°C. […] Each hour for 4 h an aliquot of cells was stained for 30 mins at 4°C with phycoerythrin-conjugated anti-D^b (clone 28-14-8; eBioscience), acquired on a BD FACSCanto10 instrument, and the geometric mean fluorescence intensity (gMFI) determined using FlowJo Software (Tree Star). The percent maximum gMFI was calculated as (gMFI^peptide-gMFI^no peptide)/(gMFI^max- gMFI^no peptide) x 100. EC50 and T1/2 were calculated using Prism software (GraphPad, La Jolla CA).
row,Sequence,EC50
1,MGVANLDNL [LT638],259 nM
2,QGINNLDNL [TagV],175 nM
